From the supplement of paper PMC10307832

Assays:
Experiment in all cases: relative viability (nuclei count vs DMSO), 5 days (fraction); higher = more cells survive
CAL-12T = tested on: CAL-12T
Method in brief: (§1)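 Nuclei were stained with Hoechst during a one-step fixation (final 0.05% Triton X-100, 1% formaldehyde, 1 ug/ml Hoechst) carried out 5 days after dosing, then counted on 4× images. The cells, lung cancer lines in 1536-well plates, had been dosed by pin tool the day after seeding with one drug alone or a fixed anchor-drug dose plus five library-drug doses (not always all listed) in √10 steps. Relative viability is the nuclei count in treated wells divided by that in vehicle wells, and each value is the median of duplicate plates.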

NCI-H1651 = tested on: NCI-H1651
Method in brief: as §1

NCI-H1563 = tested on: NCI-H1563
Method in brief: as §1

H3255 = tested on: H3255
Method in brief: as §1

NCI-H1437 = tested on: NCI-H1437
Method in brief: as §1

NCI-H1650 = tested on: NCI-H1650
Method in brief: as §1

NCI-H2228 = tested on: NCI-H2228
Method in brief: as §1

NCI-H661 = tested on: NCI-H661
Method in brief: as §1

ABC-1 = tested on: ABC-1
Method in brief: as §1

NCI-H322M = tested on: NCI-H322M
Method in brief: as §1

NCI-H520 = tested on: NCI-H520
Method in brief: as §1

SK-MES-1 = tested on: SK-MES-1
Method in brief: as §1

PC-3 [JPC-3] = tested on: PC-3 [JPC-3]
Method in brief: as §1

NCI-H2405 = tested on: NCI-H2405
Method in brief: as §1

COR-L23 = tested on: COR-L23
Method in brief: as §1

EKVX = tested on: EKVX
Method in brief: as §1

PC-14 = tested on: PC-14
Method in brief: as §1

NCI-H1355 = tested on: NCI-H1355
Method in brief: as §1

LK-2 = tested on: LK-2
Method in brief: as §1

HCC-15 = tested on: HCC-15
Method in brief: as §1

NCI-H1734 = tested on: NCI-H1734
Method in brief: as §1

RERF-LC-KJ = tested on: RERF-LC-KJ
Method in brief: as §1

SW 1573 = tested on: SW 1573
Method in brief: as §1

HCC-827 = tested on: HCC-827
Method in brief: as §1

`Clc1ccc(Nc2nnc(Cc3ccncc3)c3ccccc23)cc1` [Vatalanib] + CS(=O)(=O)N1CCN(Cc2cc3nc(-c4cccc5[nH]ncc45)nc(N4CCOCC4)c3s2)CC1 [Pictilisib] (partner 1 µM) showed a relative viability (CAL-12T; first compound 0.04 µM) of 0.238, a relative viability (CAL-12T; first compound 0.1265 µM) of 0.39 and a relative viability (CAL-12T; first compound 1.265 µM) of 0.446. For the same compound, the relative viability (CAL-12T; first compound 4 µM) was 0.463, the relative viability (NCI-H1651; first compound 0.04 µM) was 0.646 and the relative viability (NCI-H1651; first compound 0.1265 µM) was 0.276. The relative viability (NCI-H1651; first compound 0.4 µM) was 0.642, the relative viability (NCI-H1651; first compound 1.265 µM) was 0.511 and the relative viability (NCI-H1651; first compound 4 µM) was 0.594. The relative viability (NCI-H1563; first compound 0.04 µM) was 0.634, the relative viability (NCI-H1563; first compound 0.1265 µM) was 0.677 and the relative viability (NCI-H1563; first compound 0.4 µM) was 0.685. For the same compound, the relative viability (NCI-H1563; first compound 1.265 µM) was 0.673, the relative viability (NCI-H1563; first compound 4 µM) was 0.652 and the relative viability (H3255; first compound 0.04 µM) was 0.43. For the same compound, the relative viability (H3255; first compound 0.1265 µM) was 0.52, the relative viability (H3255; first compound 0.4 µM) was 0.311 and the relative viability (H3255; first compound 1.265 µM) was 0.384. The relative viability (H3255; first compound 4 µM) was 0.438, the relative viability (NCI-H1437; first compound 0.04 µM) was 0.49 and the relative viability (NCI-H1437; first compound 0.1265 µM) was 0.456. It also gave a relative viability (NCI-H1437; first compound 0.4 µM) of 0.518, a relative viability (NCI-H1437; first compound 1.265 µM) of 0.432 and a relative viability (NCI-H1437; first compound 4 µM) of 0.432. For the same compound, the relative viability (NCI-H1650; first compound 0.04 µM) was 0.612, the relative viability (NCI-H1650; first compound 0.1265 µM) was 0.556 and the relative viability (NCI-H1650; first compound 0.4 µM) was 0.578. The relative viability (NCI-H1650; first compound 1.265 µM) was 0.55, the relative viability (NCI-H1650; first compound 4 µM) was 0.592 and the relative viability (NCI-H2228; first compound 0.04 µM) was 0.313. For the same compound, the relative viability (NCI-H2228; first compound 0.1265 µM) was 0.432, the relative viability (NCI-H2228; first compound 0.4 µM) was 0.317 and the relative viability (NCI-H2228; first compound 1.265 µM) was 0.379. For the same compound, the relative viability (NCI-H2228; first compound 4 µM) was 0.432, the relative viability (NCI-H661; first compound 0.04 µM) was 0.345 and the relative viability (NCI-H661; first compound 0.1265 µM) was 0.378. It also gave a relative viability (NCI-H661; first compound 0.4 µM) of 0.392, a relative viability (NCI-H661; first compound 1.265 µM) of 0.365 and a relative viability (NCI-H661; first compound 4 µM) of 0.34. The relative viability (ABC-1; first compound 0.04 µM) was 0.888, the relative viability (ABC-1; first compound 0.1265 µM) was 0.78 and the relative viability (ABC-1; first compound 0.4 µM) was 0.877. It also gave a relative viability (ABC-1; first compound 1.265 µM) of 0.71, a relative viability (ABC-1; first compound 4 µM) of 0.784 and a relative viability (NCI-H322M; first compound 0.04 µM) of 0.513. It also gave a relative viability (NCI-H322M; first compound 0.1265 µM) of 0.489, a relative viability (NCI-H322M; first compound 0.4 µM) of 0.555 and a relative viability (NCI-H322M; first compound 1.265 µM) of 0.534. For the same compound, the relative viability (NCI-H322M; first compound 4 µM) was 0.553, the relative viability (NCI-H520; first compound 0.04 µM) was 0.312 and the relative viability (NCI-H520; first compound 0.1265 µM) was 0.277. For the same compound, the relative viability (NCI-H520; first compound 0.4 µM) was 0.34, the relative viability (NCI-H520; first compound 1.265 µM) was 0.306 and the relative viability (NCI-H520; first compound 4 µM) was 0.308. The relative viability (SK-MES-1; first compound 0.04 µM) was 0.408, the relative viability (SK-MES-1; first compound 0.1265 µM) was 0.351 and the relative viability (SK-MES-1; first compound 0.4 µM) was 0.387. The relative viability (SK-MES-1; first compound 1.265 µM) was 0.338, the relative viability (SK-MES-1; first compound 4 µM) was 0.365 and the relative viability (PC-3 [JPC-3]; first compound 0.04 µM) was 0.796. For the same compound, the relative viability (PC-3 [JPC-3]; first compound 0.1265 µM) was 0.715, the relative viability (PC-3 [JPC-3]; first compound 0.4 µM) was 0.645 and the relative viability (PC-3 [JPC-3]; first compound 1.265 µM) was 0.726. The relative viability (PC-3 [JPC-3]; first compound 4 µM) was 0.752, the relative viability (NCI-H2405; first compound 0.04 µM) was 0.506 and the relative viability (NCI-H2405; first compound 0.1265 µM) was 0.429. The relative viability (NCI-H2405; first compound 1.265 µM) was 0.352, the relative viability (NCI-H2405; first compound 4 µM) was 0.493 and the relative viability (COR-L23; first compound 0.04 µM) was 0.992. For the same compound, the relative viability (COR-L23; first compound 0.1265 µM) was 0.745, the relative viability (COR-L23; first compound 0.4 µM) was 0.854 and the relative viability (COR-L23; first compound 1.265 µM) was 0.758. For the same compound, the relative viability (COR-L23; first compound 4 µM) was 0.64, the relative viability (EKVX; first compound 0.04 µM) was 0.39 and the relative viability (EKVX; first compound 0.1265 µM) was 0.463. For the same compound, the relative viability (EKVX; first compound 0.4 µM) was 0.391, the relative viability (EKVX; first compound 1.265 µM) was 0.344 and the relative viability (EKVX; first compound 4 µM) was 0.396. For the same compound, the relative viability (PC-14; first compound 0.04 µM) was 0.832, the relative viability (PC-14; first compound 0.1265 µM) was 0.712 and the relative viability (PC-14; first compound 0.4 µM) was 0.693. The relative viability (PC-14; first compound 1.265 µM) was 0.69, the relative viability (PC-14; first compound 4 µM) was 0.679 and the relative viability (NCI-H1355; first compound 0.04 µM) was 0.391. The relative viability (NCI-H1355; first compound 0.1265 µM) was 0.441, the relative viability (NCI-H1355; first compound 0.4 µM) was 0.53 and the relative viability (NCI-H1355; first compound 1.265 µM) was 0.394. The relative viability (NCI-H1355; first compound 4 µM) was 0.457, the relative viability (LK-2; first compound 0.04 µM) was 0.531 and the relative viability (LK-2; first compound 0.1265 µM) was 0.561. It also gave a relative viability (LK-2; first compound 1.265 µM) of 0.651, a relative viability (LK-2; first compound 4 µM) of 0.569 and a relative viability (HCC-15; first compound 0.04 µM) of 0.788. The relative viability (HCC-15; first compound 0.1265 µM) was 0.741, the relative viability (HCC-15; first compound 0.4 µM) was 0.799 and the relative viability (HCC-15; first compound 1.265 µM) was 0.716. The relative viability (HCC-15; first compound 4 µM) was 0.786, the relative viability (NCI-H1734; first compound 0.04 µM) was 0.478 and the relative viability (NCI-H1734; first compound 0.1265 µM) was 0.471. For the same compound, the relative viability (NCI-H1734; first compound 0.4 µM) was 0.503, the relative viability (NCI-H1734; first compound 1.265 µM) was 0.45 and the relative viability (NCI-H1734; first compound 4 µM) was 0.465. It also gave a relative viability (RERF-LC-KJ; first compound 0.04 µM) of 0.486, a relative viability (RERF-LC-KJ; first compound 0.1265 µM) of 0.579 and a relative viability (RERF-LC-KJ; first compound 0.4 µM) of 0.745. For the same compound, the relative viability (RERF-LC-KJ; first compound 1.265 µM) was 0.422, the relative viability (RERF-LC-KJ; first compound 4 µM) was 0.481 and the relative viability (SW 1573; first compound 0.04 µM) was 0.596. The relative viability (SW 1573; first compound 0.1265 µM) was 0.525, the relative viability (SW 1573; first compound 0.4 µM) was 0.544 and the relative viability (SW 1573; first compound 1.265 µM) was 0.408. It also gave a relative viability (SW 1573; first compound 4 µM) of 0.556, a relative viability (HCC-827; first compound 0.04 µM) of 0.974 and a relative viability (HCC-827; first compound 0.1265 µM) of 0.872. It also gave a relative viability (HCC-827; first compound 0.4 µM) of 0.925, a relative viability (HCC-827; first compound 1.265 µM) of 1.06 and a relative viability (HCC-827; first compound 4 µM) of 0.863.
